From US5849863A, “Cytolytic bradykinin antagonists” (University of Colorado, priority 1995, dated 1998)
No end group written: not given here.

Key:
[1] = system: Calcium flux in response to BK; experiment: Calcium flux assay, response to BK; type: cell-based; settings: read-out: IC50 Ca2+ (BK)
Procedure: (§1) Briefly, mechanically dispersed single cell suspensions of plateau phase cells (7 days after splitting) were suspended in 20 mM HEPES/BSS buffer (20 mM Hepes/140 mM NaCl/5mM KCI/1 mM MgCl2 /5 mM Glucose) adjusted to pH 6,8 at 37° C. The acetoxymethyl ester form of Indo-1 (Indo-AM) at 5 μM was incubated with the cells for 30 min at 37° C. and then diluted with 1:1 with 20 mM HEPES/BSS buffer, pH 7.4 to raise the final pH to 7.1 followed by a second 30-min incubation at 37° C.
(§2) UV excitation (80 mW at 360 nm) was delivered by a model INNOVA 90/5 argon ion laser (Coherent, Palo Alto, Calif.). […] Thus, the ratio of the 410 nm fluorescence/490 nm fluorescence constitutes a measure of the changes in calcium ions liberated form intracellular stores (Endoplasmic reticulum) in response to various stimuli. Viable, loaded cells were distinguished by the machine form debris, dead cells, and unloaded cells by forward angle and 90° light scatter and 490 nm fluorescence. […] Data were collected by the MDADS computer including 410 nm and 490 nm fluorescence intensities and the ratio of 410/490 fluorescence intensity was secured as a function of time. […] The data were analyzed by a program developed by Philip Jewett.

[2] = system: SCLC cell lines; experiment: Growth of SCLC cell lines (MTT assay); type: cell-based, human; settings: result in words
Procedure: (§3) The effectiveness of the antagonist compounds in inhibiting cancer cell growth in vitro was determined using a panel of human lung cancer cell lines: SCLC--SHP77, H345 and NSCLC--A549, H450; breast carcinoma McF7, normal human epithelial BEAS and normal human skin fibroblast FS 15 were used to study the specificity and cytotoxicity of the BK antagonist dimers. Cell lines were treated with various concentrations of dimers for 5 to 7 days and cell viability were measured with routine MTT assay. Cells treated with BK dimers were also be evaluated for apoptosis using our newly developed cytometric technique.
(§4) Cellular growth and survival was measured by a rapid colorimetric assay, based on the tetrazolium salt MTT, (3-(4,5-dimethylthiazol-2-yl)-2,5-diphenyl tetrazolium bromide), developed by Mosmann (J. of Immun. Methods, 65, 55-63, 1983) with minor modifications. Briefly, 1,000 normal lung fibroblasts or normal epithelial BEAS-2B cells, 1,000 or 5,000 viable NSCLC cell and 10,000 viable SCLC cell were plated in a 100 μl volume of growth medium in 96 well flat-bottomed microtiter plates. The cells were allowed to recover overnight. Bradykinin antagonists at various concentrations were added to the cells in triplicates and the plates were incubated at 37° C., 5% CO2 with 100% humidity. […] Absorbance at 490 nm was immediately determined using a scannning multiwell plate reader.

[3] = system: SCLC cell lines; experiment: Apoptosis in SCLC / lung cancer cells; type: cell-based, human; settings: inhibitory concentrations; data not shown
[4] = system: SCLC cell line SHP-77; experiment: Colorimetric MTT assay, growth of SCLC cell line SHP-77; type: cell-based, human
Procedure: as §3
as §4, with “reader. […]” for “reader.”

[5] = system: Calcium flux in response to CCK; experiment: Calcium flux assay, response to CCK or gastrin; type: cell-based
Procedure: as §1, §2

[6] = Stability in plasma; type: in vitro ADME
[7] = system: intracellular Ca++ release, human lung cancer cell lines; settings: Bunn et al. 1992; cited from earlier work
[8] = system: guinea pig ileum; settings: agonist reference value; cited from earlier work
[9] = system: rat uterus; settings: agonist reference value; cited from earlier work

NC(N)=NCCC[C@@H](N)C(=O)N[C@@H](CCCN=C(N)N)C(=O)N1CCC[C@H]1C(=O)N1C[C@H](O)C[C@H]1C(=O)NCC(=O)N[C@@H](Cc1cccs1)C(=O)N[C@@H](CO)C(=O)N1Cc2ccccc2C[C@@H]1C(=O)N1[C@H](C(=O)N[C@@H](CCCN=C(N)N)C(=O)O)C[C@@H]2CCCC[C@@H]21 [Compound B116]
IC50 [1]: 0.01 µM
growth inhibition, SCLC cell lines [2]: no growth inhibition
apoptotic response in SCLC cell lines [3]: no growth inhibition or apoptotic response
effect on SCLC growth ([4]; concentration up to 40 μM, SHP-77): little effect
IC50 ([4]; growth of SCLC cell line SHP-77): > 40 µM
% Inhibition CCK Ca2+ [5]: 0%
stable in plasma [6]: stable in plasma
half-life ([6]; stability in plasma, read-out: Plasma t1/2): > 24 h

RPPGFSPFR [bradykinin, Arg^1 -Pro^2 -Pro^3 -Gly^4 -Phe^5 -Ser^6 -Pro^7 Phe^8 -Arg^9]
stimulation of intracellular Ca++ release [7]: most potent peptide stimulant of intracellular Ca^++ release
pD2 (negative logarithm of the dose of bradykinin that causes half-maximal contraction) [8]: 7.4
pD2 (negative logarithm of the dose of bradykinin that causes half-maximal contraction) [9]: 7.9
